Results as given in patent publication US11856970B2, “Bacillus subtilis for animal feed” (CHR. HANSEN A/S, priority 2018, dated 2024).

Test system: E. coli
Test: Agar well diffusion, screening for inhibition of E. coli
Format: cell-based, Escherichia coli
Details: E. coli O147:K89 F4 H19
Procedure: The seven pathogenic E. coli and Salmonella spp. strains were each suspended in MRD until McFarland 0.5 was obtained and 10 μL of each pathogen suspension was diluted in approximately 35 ml melted LB agar (max. 42° C.). The inoculated agar was poured into Omni Tray Single-well plates, Immuno TSP plates were attached. After drying the immune TSP plates were removed and the wells were inoculated with 5 μL overnight culture (triplicates) of Bacillus test strains. The plates were incubated aerobically at 30° C. for 48 hours. For the E. coli plates, two replicate plates were used (n=2); for the 10 Salmonella spp. plates, one replicate plate was used (n=1).
The following positioning of the Bacillus subtilis strains on the plates containing the pathogens was used:
The concentration of E. coli and Salmonella spp. in the inoculated agar was estimated to be 2.9×10^4 CFU/ml.

For `O=C(O)c1cn(C2CC2)c2cc(N3CCNCC3)c(F)cc2c1=O` [ciprofloxacin], which “inhibition zones (FIG. 2, in words)” value is on record?
The value was “Inhibition is also seen”.
